# Source: US20260158014A1, “METHODS OF ADMINISTERING VOXELOTOR” (Global Blood Therapeutics, Inc., priority 2021, published 2026)
# Legend:
# [1] = Population PK modeling of voxelotor in patients aged 4 to 11 years (part C); type: in vivo, human; conditions: 4-11 years, n=38; for % of patients with ≥20% Hb occupancy / % Hb occupancy: weight-based dosing; for % Hb occupancy: geometric mean (% CV) in Table 3
# Experimental: Population PK modeling was used to determine the whole-blood and plasma PK parameters of voxelotor in the study population. The PK parameters included maximum whole blood or plasma concentration (Cmax), area under the concentration-time curve (AUC), terminal elimination half-life (t1/2), and percent Hb occupancy.
# Statistical analyses: All efficacy and safety assessments were summarized with descriptive statistics. Population PK analyses using nonlinear mixed-effects modeling were performed to characterize voxelotor PK in plasma and whole blood.
# [2] = biological target: T1, CYP2C9 (Homo sapiens, UniProt P11712); test: Clinical probe-substrate DDI study: S-warfarin; type: in vivo
# T1 construct: endogenous in cells; host or cells: healthy human subjects (in vivo)
# Experimental: The effect of voxelotor on the pharmacokinetics (PK) of a single dose of caffeine, warfarin sodium, omeprazole, and midazolam hydrochloride, which are probe substrates for cytochrome P450 (CYP)1A2, CYP2C9, CYP2C19, and CYP3A4, respectively, were studied in healthy subjects. During Period 1, subjects received a single dose of caffeine 100 mg, warfarin sodium 10 mg+vitamin K 10 mg, omeprazole 20 mg, and midazolam hydrochloride 2 mg on Day 1. During Period 2, subjects received voxelotor 900 mg QD on Days 1 and 2 followed by 600 mg QD on Day 3, a single dose of caffeine 100 mg, warfarin sodium 10 mg+vitamin K 10 mg, omeprazole 20 mg, and midazolam hydrochloride 2 mg on Day 4, and voxelotor 600 mg QD on Days 4 through 7.
# Whole blood and plasma concentrations of voxelotor and plasma concentrations of caffeine, paraxanthine, S-warfarin, omeprazole, 5-hydroxyomeprazole, midazolam, and 1-hydroxymidazolam were determined using validated assays.
# [3] = test system: patients with SCD; test: HOPE trial: safety; type: in vivo, human
# Experimental: The safety of OXBRYTA was evaluated in the HOPE trial based on data from 88 patients with SCD who received OXBRYTA 1,500 mg and 91 patients who received placebo orally once daily [see Clinical Studies (14.1)]. Seventy-four patients received OXBRYTA 1,500 mg once daily for ≥24 weeks, 65 patients for ≥48 weeks, and 63 patients completed the 72-week treatment period.
# In patients who received OXBRYTA 1,500 mg once daily, the median age was 24 years (range:12 to 59 years); 65% female; 66% Black or African American and 23% Arab/Middle Eastern; and 65% receiving hydroxyurea at baseline.
# [4] = test system: patients treated; test: Hypersensitivity reactions in treated patients; conditions: human, in vivo
# [5] = biological target: hemoglobin S (HbS) (Homo sapiens, UniProt P68871+P69905, E7V); test: HbS binding and polymerization inhibition
# [6] = test system: QT interval; test: Cardiac electrophysiology (QT interval); type: in vivo; conditions: plasma concentrations approximately 2-fold above therapeutic concentrations
# [7] = 72-week population pharmacokinetic analysis in patients with SCD; type: in vivo, human
# [8] = Effect of food (high-fat, high-calorie meal); type: in vivo; conditions: high-calorie meal vs fasted
# [9] = PK in subjects with renal impairment; type: in vivo, human
# Experimental: Following a single 900 mg dose of voxelotor, whole blood exposures in subjects with severe renal impairment (eGFR <30 mL/min/1.73 m^2) were 25% lower compared to healthy controls.
# [10] = PK in patients with HbSC genotype; type: in vivo, human
# [11] = Clinical DDI: acid reducing agent omeprazole on voxelotor; conditions: in vivo
# [12] = biological target: T2, CYP2C8 (Homo sapiens, UniProt P10632); test: Effect of voxelotor on CYP450 enzymes in vivo: CYP2C8
# T2 construct: endogenous in cells; host or cells: human subjects (in vivo)
# [13] = biological target: OATP1A2 (Homo sapiens, UniProt P46721); test: In vitro transporter study; type: in vitro ADME
# [14] = test system: RasH2 transgenic mice; test: 26-week carcinogenicity study; type: in vivo, mouse; conditions: 26 weeks; oral 30, 150, or 500 mg/kg/day
# [15] = test system: rat; test: Rat micronucleus assay; conditions: in vivo
# [16] = test system: patients with SCD aged 4 to 11 years; test: Open-label Phase 2 trial (part C): safety assessment (TEAEs)
# [17] = 4 to 11 years, n=45, listed as OXBRYTA
smiles,measurement,setting,value
"CC(C)n1nccc1-c1ncccc1COc1cccc(O)c1C=O [voxelotor, 2-hydroxy-6-((2-(1-isopropyl-1H-pyrazol-5-yl)pyridin-3-yl)methoxy)benzaldehyde]",% of patients with ≥20% Hb occupancy,[1],Approximately 76%
same,% of patients with ≥20% Hb occupancy,[1]; listed as Voxelotor,76.3%
same,% Hb occupancy,[1],26%
same,% Hb occupancy,[1]; listed as Voxelotor,26.16 (32.2) %
same,Cmax,"[1]; human, whole blood, oral, geometric mean (% CV), 600/900/1500 mg weight-based",148 µg/mL
same,AUC(0-t),"[1]; human, whole blood, oral, geometric mean (% CV), 600/900/1500 mg weight-based, read-out: AUC0-24 h, whole blood",3260 µg·h/mL
same,half-life,"[1]; human, whole blood, oral, geometric mean (% CV), read-out: t1/2, whole blood (converted)",27.2 h
same,effect of voxelotor on PK of CYP2C9 probe substrate S-warfarin,"[2]; healthy subjects, voxelotor 900/600 mg QD, warfarin sodium 10 mg",no clinically meaningful effect
same,CYP2C9 inhibition in vivo,"[2]; human, in vivo",not
same,"serious adverse reactions, patients","[3]; 1,500 mg once daily, 3/88",3%
same,"permanent discontinuation due to an adverse reaction (Grades 1-4), patients","[3]; 1,500 mg once daily, 4/88",5%
same,Adverse reaction: Abdominal Pain,"[3]; 1,500 mg, N=88",23%
same,Adverse reaction: Diarrhea,"[3]; 1,500 mg, N=88",23%
same,Adverse reaction: Headache,"[3]; 1,500 mg, N=88",32%
same,Adverse reaction: Nausea,"[3]; 1,500 mg, N=88",19%
same,Adverse reaction: Pyrexia,"[3]; 1,500 mg, N=88",15%
same,Adverse reaction: Rash,"[3]; 1,500 mg, N=88",15%
same,"dosage modifications (dose reduction or dosing interruption) due to an adverse reaction, patients",[3]; 42/88,48%
same,"serious hypersensitivity reactions, patients treated",[4],< 1%
same,HbS polymerization,[5],dose-dependent inhibition
same,QT interval prolongation,[6],does not prolong QT interval to any clinically relevant extent
same,"AUC0-24 h, whole blood","[7]; 1,500 mg, geometric mean","3,830 μg · hr/mL"
same,"Cmax, whole blood","[7]; 1,500 mg, geometric mean",180 µg/mL
same,"differences in PK based on age (12 to 59 years), sex, body weight (28 to 135 kg), mild to severe renal impairment","[7]; human, in vivo",No clinically significant differences
same,Cmax,"[7]; human, plasma, oral, 1500 mg, 1,500 mg, geometric mean",14 µg/mL
same,half-life,"[7]; human, plasma, oral, 1500 mg, 1,500 mg, geometric mean, patients with SCD, read-out: Half-life (terminal elimination), plasma (converted)",38.7 h
same,AUC(0-t),"[7]; human, plasma, oral, 1500 mg, 1,500 mg, geometric mean, read-out: AUC0-24 h, plasma",278 µg·h/mL
same,Vd,"[7]; human, plasma, oral, read-out: apparent volume of distribution of the central compartment",333 L
same,apparent volume of distribution of the peripheral compartment,[7]; plasma,72.3 L
same,apparent oral clearance,"[7]; plasma, patients with SCD",6.1 L/h
same,"exposures in whole blood and plasma, pediatric patients 4 to <17 years vs adults",[7]; recommended dosage,similar
same,"increase in AUC with food, plasma",[8],42%
same,"increase in AUC with food, whole blood",[8],42%
same,"increase in Cmax with food, plasma",[8],95%
same,"increase in Cmax with food, whole blood",[8],45%
same,effect of renal function on excretion,"[9]; human, in vivo",no clinically significant effect
same,"unbound plasma concentrations, severe renal impairment vs healthy controls",[9]; single 900 mg dose,comparable
same,whole blood exposures lower in severe renal impairment vs healthy controls,"[9]; single 900 mg dose, eGFR <30 mL/min/1.73 m^2",25%
same,steady state whole blood AUC higher in HbSC vs HbSS genotype,"[10]; HbSC n=11, HbSS n=220",50%
same,steady state whole blood Cmax higher in HbSC vs HbSS genotype,"[10]; HbSC n=11, HbSS n=220",45%
same,steady state plasma AUC higher in HbSC vs HbSS genotype,"[10]; human, in vivo",23%
same,steady state plasma Cmax higher in HbSC vs HbSS genotype,"[10]; human, in vivo",15%
same,effect of omeprazole (proton pump inhibitor) on voxelotor exposure,[11],did not alter voxelotor exposure
same,CYP2C8 inhibition in vivo,[12],not
same,substrate of OATP1A2,[13],not a substrate
same,carcinogenicity,[14],not carcinogenic
same,"genotoxicity, rat micronucleus assay",[15],not genotoxic
same,Any drug-related TEAE,"[16]; 4-11 years, n=45, week 24",22 (48.9) n (%)
same,Drug-related AE: Abdominal pain,"[16]; 4-11 years, n=45, week 24",4 (8.9) n (%)
same,Drug-related AE: Diarrhea,"[16]; 4-11 years, n=45, week 24",5 (11.1) n (%)
same,Drug-related AE: Headache,"[16]; 4-11 years, n=45, week 24",2 (4.4) n (%)
same,Drug-related AE: Hypersplenism,"[16]; 4-11 years, n=45, week 24",2 (4.4) n (%)
same,Drug-related AE: Pyrexia,"[16]; 4-11 years, n=45, week 24",2 (4.4) n (%)
same,Drug-related AE: Rash,"[16]; 4-11 years, n=45, week 24",5 (11.1) n (%)
same,Drug-related AE: Transaminases increased,"[16]; 4-11 years, n=45, week 24",4 (8.9) n (%)
same,Drug-related AE: Vomiting,"[16]; 4-11 years, n=45, week 24",5 (11.1) n (%)
same,tolerability of weight-based dosing,"[16]; 4 to 11 years, median exposure 43.3 weeks",well tolerated
same,deaths,"[16]; 4 to 11 years, n=45",no deaths
same,"drug-related TEAE diarrhea, patients","[16]; 4 to 11 years, n=45",11%
same,"drug-related TEAE rash, patients","[16]; 4 to 11 years, n=45",11%
same,"drug-related TEAE vomiting, patients","[16]; 4 to 11 years, n=45",11%
same,"pyrexia, patients (non-SCD related TEAE / adverse reaction)","[16]; 4 to 11 years, n=45",35.6%
same,"rash, patients (non-SCD related TEAE / adverse reaction)","[16]; 4 to 11 years, n=45",20%
same,"vomiting, patients (non-SCD related TEAE / adverse reaction)","[16]; 4 to 11 years, n=45",33.3%
same,"pyrexia, patients (non-SCD related TEAE / adverse reaction)",[16]; [17],36%
same,"vomiting, patients (non-SCD related TEAE / adverse reaction)",[16]; [17],33%
same,"abdominal pain, patients (adverse reaction)","[16]; 4 to <12 years, n=45",18%
same,"diarrhea, patients (adverse reaction)","[16]; 4 to <12 years, n=45",18%
same,"headache, patients (adverse reaction)","[16]; 4 to <12 years, n=45",18%
same,patients who discontinued voxelotor due to adverse events,"[16]; of 45 patients, 2 drug-related, 2 unrelated",4 patients
